Molecules are shown by their SMILES. Where only a bound is given, the exact number is not on record here.

The target of one assay is Cytochrome P450 2D6 (Homo sapiens, UniProt P10635). As to the kind of experiment: Inhibition of human liver microsome CYP2D6 in assessed as [14C]formaldehyde formation. The format is ADME, microsomes.
The next assay concerns the target Cytochrome P450 3A4 (Homo sapiens, UniProt P08684). As to the kind of experiment: Inhibition of human liver microsome CYP3A4 in assessed as [14C]formaldehyde formation. It is filed as ADME, microsomes. On the technique in general: Liver microsomes are a subcellular fraction often used to study metabolism.

Cytochrome P450 2D6, sequence (P10635 whole entry): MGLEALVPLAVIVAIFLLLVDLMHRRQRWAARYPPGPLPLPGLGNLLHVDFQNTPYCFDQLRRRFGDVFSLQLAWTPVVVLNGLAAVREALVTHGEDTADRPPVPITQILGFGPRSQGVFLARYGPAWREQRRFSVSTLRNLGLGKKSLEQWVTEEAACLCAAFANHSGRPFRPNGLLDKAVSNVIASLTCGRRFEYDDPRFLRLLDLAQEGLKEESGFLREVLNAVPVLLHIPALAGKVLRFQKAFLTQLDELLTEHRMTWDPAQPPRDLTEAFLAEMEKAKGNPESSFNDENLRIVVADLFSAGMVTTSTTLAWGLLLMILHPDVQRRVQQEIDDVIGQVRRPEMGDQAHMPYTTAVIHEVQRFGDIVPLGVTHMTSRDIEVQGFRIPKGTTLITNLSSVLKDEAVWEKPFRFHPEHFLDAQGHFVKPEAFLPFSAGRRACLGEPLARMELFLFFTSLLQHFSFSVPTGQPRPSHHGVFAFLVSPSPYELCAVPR
Cytochrome P450 3A4, sequence (P08684 whole entry): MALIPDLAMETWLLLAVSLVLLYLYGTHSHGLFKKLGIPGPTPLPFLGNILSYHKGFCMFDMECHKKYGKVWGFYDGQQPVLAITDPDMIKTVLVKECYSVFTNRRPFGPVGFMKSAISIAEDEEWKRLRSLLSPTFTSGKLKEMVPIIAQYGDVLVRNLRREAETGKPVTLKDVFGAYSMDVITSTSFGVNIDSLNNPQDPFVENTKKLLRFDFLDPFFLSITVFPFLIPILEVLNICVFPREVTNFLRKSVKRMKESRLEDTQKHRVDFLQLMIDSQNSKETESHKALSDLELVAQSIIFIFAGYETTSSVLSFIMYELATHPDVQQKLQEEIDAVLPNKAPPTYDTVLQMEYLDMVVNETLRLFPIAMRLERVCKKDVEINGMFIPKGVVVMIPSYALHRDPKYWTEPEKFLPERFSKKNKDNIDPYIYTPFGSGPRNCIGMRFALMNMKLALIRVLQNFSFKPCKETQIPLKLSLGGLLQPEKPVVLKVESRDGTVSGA

For orientation: IC50 means the point on the concentration scale where inhibition reaches its midpoint. `O[C@H]1OC[C@H](Cc2ccc3c(c2)OCO3)[C@H]1Cc1ccc2c(c1)OCO2`: the IC50 on Cytochrome P450 2D6 is 35.5 µM; at Cytochrome P450 3A4, 9.1 µM.

On to `COc1cc(C[C@@H](CO)[C@H](CO)Cc2ccc3c(c2)OCO3)cc(OC)c1OC`, for which the IC50 on Cytochrome P450 2D6 was more than 100 µM; at Cytochrome P450 3A4 it was 0.8 µM.

As to `COc1cc(C[C@H]2C(=O)OC[C@@H]2Cc2ccc3c(c2)OCO3)cc(OC)c1OC`, the IC50 at Cytochrome P450 2D6 amounted to 95.7 µM; on Cytochrome P450 3A4 it was 1 µM. For `COc1cc(C[C@H]2COC(=O)[C@@H]2Cc2cc(OC)c(OC)c(OC)c2)cc(OC)c1OC` the same measures were more than 100 µM and 14.9 µM. For `COc1cc(C[C@H]2C(O)OC[C@@H]2Cc2ccc3c(c2)OCO3)cc(OC)c1OC` (stereo not given in full) the same measures were more than 100 µM and 0.83 µM. For `COc1cc(C[C@H]2COC(O)[C@@H]2Cc2cc(OC)c(OC)c(OC)c2)cc(OC)c1OC` (stereo not given in full), the IC50 at Cytochrome P450 2D6 was more than 100 µM; on Cytochrome P450 3A4, 15 µM. The corresponding values for `COc1cc(OC)c(OC)cc1CC(C)=O` are more than 100 µM and 28.7 µM. For the compound `COc1cc(C[C@H]2COC(=O)[C@@H]2Cc2cc(OC)c3c(c2)OCO3)cc(OC)c1O`, the IC50 on Cytochrome P450 2D6 was more than 100 µM.

As to `COc1cc(C[C@@H]2[C@@H](Cc3cc(OC)c4c(c3)OCO4)CO[C@@H]2O)cc(OC)c1OC`, the IC50 was more than 100 µM on Cytochrome P450 2D6 and 0.83 µM at Cytochrome P450 3A4. On to `CC1=C[C@@H](O)[C@@]23O[C@]2(C)C[C@@H]2OC(=O)C(C)=C2C[C@@H]13`, for which the IC50 on Cytochrome P450 2D6 was more than 100 µM; on Cytochrome P450 3A4, 98.2 µM. As to `CC1=CC(=O)C2=C(C)C[C@@H]3OC(=O)C(C)=C3C[C@@H]12`, the IC50 at Cytochrome P450 2D6 is more than 100 µM; on Cytochrome P450 3A4 it was 8.8 µM.

As for `CO[C@@H]1OC[C@H](Cc2ccc3c(c2)OCO3)[C@H]1Cc1ccc2c(c1)OCO2`, the results for the IC50 at Cytochrome P450 2D6 and on Cytochrome P450 3A4 were more than 100 µM and 7.7 µM, respectively.

With `OC[C@H](Cc1ccc2c(c1)OCO2)[C@H](CO)Cc1ccc2c(c1)OCO2` [DIHYDROCUBEBIN], the IC50 at Cytochrome P450 2D6 is 17.5 µM; on Cytochrome P450 3A4 it was 9.5 µM. The corresponding values for `CCOc1cc(C[C@H]2COC(O)[C@@H]2Cc2cc(OC)c(OC)c(OC)c2)cc2c1OCO2` (stereo not given in full) [ETHOXYCLUSIN] are 87.9 µM and 0.44 µM. As to `O=C1OC[C@H](Cc2ccc3c(c2)OCO3)[C@H]1Cc1ccc2c(c1)OCO2` [HINOKININ], the results for the IC50 on Cytochrome P450 2D6 and on Cytochrome P450 3A4 were 26.5 µM and 8 µM, respectively. For `COc1cc(OC)c([C@@H]2[C@H](C)[C@@H](C)[C@H]2c2cc(OC)c(OC)cc2OC)cc1OC` [MAGNOSALIN] the same measures were more than 100 µM and 85.4 µM. `COc1cc([C@H]2OC[C@@H]3C(c4cc(OC)c(O)c(OC)c4)OC[C@H]23)ccc1O` (stereo not given in full) [MEDIORESINOL]: the IC50 is more than 100 µM on Cytochrome P450 2D6 and 13.7 µM at Cytochrome P450 3A4. Regarding `C/C=C/c1cc(OC)c(OC)cc1OC` [TRANS-ASARONE], the results for the IC50 on Cytochrome P450 2D6 and at Cytochrome P450 3A4 were more than 100 µM and 92.3 µM, respectively.
